Assay [1] relates to asexual blood stage P. falciparum NF54 (drug sensitive). Set-up: method as in Coertzen et al., 2018; Wong et al., 2019. The note with it: SYBR Green I, mean ± SEM, ref Coertzen et al., 2018, Wong et al., 2019; cited from earlier work.
In assay [2] the test system is immature stage II-III P. falciparum NF54 gametocytes. Also noted: method as in Coertzen et al., 2018, Wong et al., 2019. The note with it: ref Coertzen et al., 2018, Wong et al., 2019, cited from earlier work.
Assay [3] deals with asexual blood stage P. falciparum K1 (multidrug resistant). The note with it: ref Coertzen et al., 2018, Wong et al., 2019, cited from earlier work.
Assay [4] deals with late stage IV-V P. falciparum NF54 gametocytes. Kind of assay: Luciferase reporter gametocytocidal assay, late stage gametocytes. The assay is classed as cell-based, Plasmodium falciparum. The note with it: for IC50: Plasmodium falciparum; for Fold change preference ratio LG to EG: late vs immature stage gametocytes. The procedure:
(§1) In vitro cultivation of asexual and gametocyte P. falciparum parasites: P. falciparum asexual blood stage parasites were cultivated in human erythrocytes in RPMI-1640 media supplemented with AlbuMax II under sterile conditions and in a hypoxic environment (90% N2, 5% CO2, and 5% O2) at 37°C as described previously ([Coertzen et al., 2018]; [Wong et al., 2019]). Gametocytes were produced from asexual blood stage parasites in a stage-specific manner through induction of cellular stress as described previously ([Reader et al., 2015]; [Coertzen et al., 2018]; [Wong et al., 2019]; [Reader et al., 2022]).
Untreated and 5 μM MB-treated immature and late-stage gametocytes were included as positive and negative controls. MB and artemisone were included as internal reference standards. In all cases, an interference assay to eliminate false positives from possible compound interference with the luciferase readout was run in parallel. Unless otherwise indicated, data are from technical triplicates, performed for three biological replicates. Complete dose-response curves are given in the (Supplementary Figures S2A,B).
(§2) Stage-specific activities of celastrol against immature (stage II-III) and late stage (stage IV-V) gametocytes were determined with the luc reporter line as described previously ([Coertzen et al., 2018]; [Wong et al., 2019]). Also included in Table 2 for direct comparison of activities with celastrol are gametocytocidal data for MB, artemisone and the artemisinin derivatives recorded previously ([Coertzen et al., 2018]; [Wong et al., 2019]).

Assay [5] concerns chloroquine sensitive Pf NF54 strain. The note with it: tritiated hypoxanthine assay; ref Figueiredo et al., 1998; Li et al., 2019; cited from earlier work.
Assay [6] relates to drug-sensitive and resistant asexual blood stage Pf. Kind of assay: Asexual blood stage activity over all strains (abstract). Type of assay: cell-based. The note with it: Plasmodium falciparum, read-out: IC50 asexual blood stage Pf. The method, then:
DHA, artesunate, artemether, chloroquine (CQ), and methylene blue (MB) were used as reference drugs. All assay conditions are as previously described ([Coertzen et al., 2018]; [Wong et al., 2019]). Compound working solutions were prepared from a 10 mM stock solution in 100% (v/v) dimethyl sulfoxide (DMSO; Sigma-Aldrich) in AlbuMAX II supplemented RPMI 1640 medium with a final DMSO concentration of 0.1% (v/v), shown to be nontoxic […] to intraerythrocytic asexual blood stage parasites ([Coertzen et al., 2018]). Dose-responses were determined using a 2-fold serial drug dilution on in vitro 95% ring-stage intraerythrocytic Pf parasites (1% parasitemia, 1% hematocrit) at 37°C under 90% N2, 5% CO2, and 5% O2 atmospheric conditions, detecting SYBR green I fluorescence as a marker for parasite proliferation following a 96 h drug treatment ([Smilkstein et al., 2004]; [Verlinden et al., 2011]). Activity against the Pf drug-sensitive NF54 strain and the multi drug-resistant K1 (resistant to CQ, quinine, pyrimethamine, and cycloguanil), and W2 (resistant to CQ, quinine, pyrimethamine, and cycloguanil) strains was evaluated. […] Data analysis was performed using GraphPad Prism (version 6) software, intra-assay variability was monitored with Z-factors, and acceptable inter-assay reproducibility was determined from the percent coefficient of variation (CV) ([Reader et al., 2015]). […]

Assay [7] deals with multidrug resistant Pf K1 strain. The note with it: tritiated hypoxanthine assay; ref Figueiredo et al., 1998; Li et al., 2019; cited from earlier work.
The test system of assay [8] is asexual blood stage P. falciparum W2 (multidrug resistant). Briefly: SYBR Green I proliferation assay, asexual blood stage Pf W2. Type of assay: cell-based, Plasmodium falciparum. The procedure: as §1
(§3) DHA, artesunate, artemether, chloroquine (CQ), and methylene blue (MB) were used as reference drugs. […] Dose-responses were determined using a 2-fold serial drug dilution on in vitro 95% ring-stage intraerythrocytic Pf parasites (1% parasitemia, 1% hematocrit) at 37°C under 90% N2, 5% CO2, and 5% O2 atmospheric conditions, detecting SYBR green I fluorescence as a marker for parasite proliferation following a 96 h drug treatment ([Smilkstein et al., 2004]; [Verlinden et al., 2011]). Activity against the Pf drug-sensitive NF54 strain and the multi drug-resistant K1 (resistant to CQ, quinine, pyrimethamine, and cycloguanil), and W2 (resistant to CQ, quinine, pyrimethamine, and cycloguanil) strains was evaluated. […]

For assay [9], the system named is immature stage II-III P. falciparum NF54 gametocytes. Briefly: Luciferase reporter gametocytocidal assay, immature gametocytes. The note with it: this study. The assay is classed as cell-based, Plasmodium falciparum. The procedure: as §1
Untreated and 5 μM MB-treated immature and late-stage gametocytes were included as positive and negative controls. MB and artemisone were included as internal reference standards. In all cases, an interference assay to eliminate false positives from possible compound interference with the luciferase readout was run in parallel. […]
as §2

Assay [10] has as its system asexual blood stage P. falciparum K1 (multidrug resistant). Briefly: SYBR Green I proliferation assay, asexual blood stage Pf K1. Type of assay: cell-based, Plasmodium falciparum. The procedure: as §1, §3
Where [11] appears, read: immature vs late stage gametocytes.

Each structure is given as a SMILES string. Like-named read-outs stand apart in the source and are kept apart here. Marks after values point to notes of the source that are not given here.

These results are taken from publication PMC9479156 (Frontiers in Pharmacology, 2022).

Turning to `C[C@H]1[C@H](N2CCS(=O)(=O)CC2)O[C@@H]2O[C@@]3(C)CC[C@H]4[C@H](C)CC[C@@H]1[C@@]24OO3` [Artemisone, artemisone], the IC50 (in general, the concentration that gives 50% inhibition) in assay [1] is 1.2 nM; in assay [2] (NF54 gametocytes, luciferase, 48 h, mean ± SEM, read-out: Immature stage II-III (luc 48 h) IC50), 1.94 ± 0.11 nM; in assay [3] (asexual blood stage, SYBR Green I, mean ± SEM), 1.01 ± 0.19 nM. Further, in assay [2] (setting [11]), the “Fold change preference ratio EG to LG” value was 21.9. The “RI (resistance index) = IC50 K1/IC50 NF54” value in [3] was 0.85 ^f.

Take `CC1=C(O)C(=O)C=C2C1=CC=C1[C@@]2(C)CC[C@@]2(C)[C@@H]3C[C@](C)(C(=O)O)CC[C@]3(C)CC[C@]12C` [Celastrol, celastrol]: the IC50 in assay [4] (NF54, abstract, read-out: IC50 late stage Pf NF54 gametocytes) was 280 nM; in [4] (NF54 gametocytes, luciferase, 72 h, mean ± SEM, this study, read-out: Late stage IV-V (luc 72 h) IC50) it was 282 ± 96.2 nM; in assay [5], 564 nM; in [6] it was 500 to 820 nM; in assay [7], 401 nM; in assay [8] (Plasmodium falciparum, W2, 96 h, read-out: IC50 W2), 500 ± 100 nM. In addition, the IC50 in assay [9] (Plasmodium falciparum, NF54 gametocytes, luciferase, 48 h, mean ± SEM, read-out: Immature stage II-III (luc 48 h) IC50) is 1160 nM; in assay [10] (Plasmodium falciparum, K1, 96 h, read-out: IC50 K1) it was 700 ± 100 nM. Besides, the “Fold change preference ratio LG to EG” value in assay [4] (this study) is listed as 4.1; in [4] (this study, listed as celastrol), “approximately 4”. Further, in assay [8] (this study), the “RI = IC50 W2/IC50 NF54” value was 0.61. For the same compound, the “Fold change preference ratio EG to LG” value in assay [9] (setting [11]) is reported as 0.2. For the same compound, the “RI (resistance index) = IC50 K1/IC50 NF54” value in [10] (this study) is 0.85.
